Data from patent US8551921B2, “Method for determining the toxicity of an environmental or chemical sample” (priority 2000, dated 2013).
Where “and” joins values, the source holds several entries; their conditions need not be identical. Equal entries are not always repeated. Where two headings read alike, the source gives them in different places.

Columns and labels:
Daphnia = conditions: IC50-values, established assay; cited from earlier work
[1] = test system: β-proteobacterium A22 (Kalmar 200); test: MARA indicator device toxic fingerprint, microorganism no. 5; conditions: Microbial Toxic Concentration, incubation time 16 h
Protocol: (§1) • dispense 150 μl of growth medium with indicator in each well • add a concentration gradient of the chemical to be tested to rows B-H in a MARA plate (i.e. an indicator device according to the present invention) • incubate for 16 h • read absorbance values; and • analyse with software.
(§2) Microbial responses to different chemicals was estimated by kinetic measurements of their growth using the Labsystem automated IEMS reader. A computer software that could monitor incubation temperatures, reading intervals, and automatically transfer OD data to a computer was developed. A growth medium containing 0.05% peptone, 0.011% bromothymol blue (BTB), 1% sodium chloride and 0.3% glucose was added to all wells. The glucose acts as a carbon source, and during growth the microorganism will break down the glucose and produce acids, that will turn the initially blue indicator to yellow. Each microplate contains 12 columns and 8 rows, and thus in each plate, 11 lyophilized microbial strains were used (one for each column, the 12th column was used as negative control). […] In order to avoid drying out of the plates during the incubation, one drop of sterile mineral oil was added to each well. The plate was then incubated in the IEMS spectrophotometer and the absorbance value from each well was measured every second hour during 48 h.
(§3) The overall toxicity of the chemical compound can be described either as the mean of all 11 MTC values (shown in column 12), or as the minimum value for all 11 microbial strains used in the assay (marked with bold in the table).

[2] = test system: Staphylococcus epidermidis (Karin12); test: MARA indicator device toxic fingerprint, microorganism no. 11; conditions: Microbial Toxic Concentration, incubation time 16 h
Protocol: as §1, §2, §3

[3] = test system: Photobacterium phosphoreum; conditions: IC50-values, established assay; cited from earlier work
[4] = test system: JG2 (strain of marine origin); conditions: Microbial Toxic Concentration, incubation time 16 h
Protocol: as §1, §2, §3

ObanF = conditions: Microbial Toxic Concentration; incubation time 16 h
Protocol: as §1, §2, §3

[5] = test system: Aeromonas hydriphila HG3 (RV 5.1); conditions: Microbial Toxic Concentration, incubation time 16 h
Protocol: as §1, §2, §3

[6] = test system: JG4 (strain of marine origin); conditions: Microbial Toxic Concentration; incubation time 16 h
Protocol: as §1, §2, §3

[7] = test system: JG1 (strain of marine origin); conditions: Microbial Toxic Concentration, incubation time 16 h
Protocol: as §1, §2, §3

[8] = test system: Saccaromyces ceriviciae (bakers yeast); conditions: Microbial Toxic Concentration, incubation time 16 h
Protocol: as §1, §2, §3

[9] = test system: JG3 (strain of marine origin); test: MARA indicator device toxic fingerprint, microorganism no. 3; conditions: Microbial Toxic Concentration; incubation time 16 h
Protocol: as §1, §2, §3

[10] = test system: 11 different microbial strains; conditions: for Inhibitory concentrations by method: MARA MTCmin: MTC value of the strain showing the highest sensitivity; for Inhibitory concentrations by method: MARA MTCmean: mean MTC for the 11 microbial strains; for Toxic fingerprint: MTC value, Mean: mean of all 11 MTC values
Protocol: as §1, §2, §3
Concentrations are given in mg/ml.

microorganism no. 7 = test: MARA indicator device toxic fingerprint, microorganism no. 7; conditions: Microbial Toxic Concentration, incubation time 16 h
Protocol: as §1, §2, §3

E. coli MZ 480 = test: MARA indicator device toxic fingerprint, microorganism no. 8; conditions: Microbial Toxic Concentration, incubation time 16 h
Protocol: as §1, §2, §3

E. coli = conditions: IC50-values, established assay; cited from earlier work

C[C@H]1O[C@@H](O[C@H]2[C@@H](O)C[C@H](O[C@H]3[C@@H](O)C[C@H](O[C@H]4CC[C@@]5(C)[C@H](CC[C@@H]6[C@@H]5C[C@@H](O)[C@]5(C)[C@@H](C7=CC(=O)OC7)CC[C@]65O)C4)O[C@@H]3C)O[C@@H]2C)C[C@H](O)[C@@H]1O [Digoxin]
Inhibitory concentrations by method: Daphnia (Daphnia): 0.192 mg/mL
Toxic fingerprint: MTC value for microorganism no. 5 [1]: 0.927
Toxic fingerprint: MTC value for microorganism no. 11 [2]: 0.104
Inhibitory concentrations by method: Microtox [3]: 1.129 mg/mL
Toxic fingerprint: MTC value for microorganism no. 2 [4]: 0.937
Toxic fingerprint: MTC value for microorganism no. 9 (ObanF): 0.201
Toxic fingerprint: MTC value for microorganism no. 6 [5]: 0.531
Toxic fingerprint: MTC value for microorganism no. 4 [6]: 0.942
Toxic fingerprint: MTC value for microorganism no. 1 [7]: 1.040
Toxic fingerprint: MTC value for microorganism no. 10 [8]: 2.510
Toxic fingerprint: MTC value for microorganism no. 3 [9]: 0.481
Inhibitory concentrations by method: MARA MTCmin [10]: 0.104 mg/mL
Inhibitory concentrations by method: MARA MTCmean [10]: 0.770 mg/mL
Toxic fingerprint: MTC value, Mean [10]: 0.8 and 0.770
Toxic fingerprint: MTC value for microorganism no. 7 (microorganism no. 7): 0.921
Toxic fingerprint: MTC value for microorganism no. 8 (E. coli MZ 480): 0.310

[N-]=[N+]=[N-] [Sodium Azide]
Toxic fingerprint: MTC value for microorganism no. 5 [1]: 0.054
Toxic fingerprint: MTC value for microorganism no. 11 [2]: 0.146
Toxic fingerprint: MTC value for microorganism no. 2 [4]: 0.045
Toxic fingerprint: MTC value for microorganism no. 9 (ObanF): 2.000
Toxic fingerprint: MTC value for microorganism no. 6 [5]: 0.082
Toxic fingerprint: MTC value for microorganism no. 4 [6]: 0.088
Toxic fingerprint: MTC value for microorganism no. 1 [7]: 0.025
Toxic fingerprint: MTC value for microorganism no. 10 [8]: 0.106
Toxic fingerprint: MTC value for microorganism no. 3 [9]: 0.056
Toxic fingerprint: MTC value, Mean [10]: 0.111
Toxic fingerprint: MTC value for microorganism no. 7 (microorganism no. 7): 0.126
Toxic fingerprint: MTC value for microorganism no. 8 (E. coli MZ 480): 0.592

C=CC(N)=O [Acryl amide]
Toxic fingerprint: MTC value for microorganism no. 5 [1]: 5.740 and 3.240
Toxic fingerprint: MTC value for microorganism no. 11 [2]: 8.300 and 10.300
Toxic fingerprint: MTC value for microorganism no. 2 [4]: 2.440 and 1.810
Toxic fingerprint: MTC value for microorganism no. 9 (ObanF): 13.900 and 11.000
Toxic fingerprint: MTC value for microorganism no. 6 [5]: 2.480 and 2.810
Toxic fingerprint: MTC value for microorganism no. 4 [6]: 2.100 and 2.510
Toxic fingerprint: MTC value for microorganism no. 1 [7]: 0.965 and 0.853
Toxic fingerprint: MTC value for microorganism no. 1 ([7]; listed as acrylamid): 0.9
Toxic fingerprint: MTC value for microorganism no. 10 [8]: 6.620 and 6.970
Toxic fingerprint: MTC value for microorganism no. 3 [9]: 4.280 and 3.370
Toxic fingerprint: MTC value, Mean [10]: 4.700 and 4.690
Toxic fingerprint: MTC value for microorganism no. 8 (E. coli MZ 480): 17.700 and 23.300
Toxic fingerprint: MTC value for microorganism no. 8 (E. coli MZ 480; listed as acrylamid): 20

[F-].[Na+] [Sodium Fluoride]
Inhibitory concentrations by method: Daphnia (Daphnia): 0.636 mg/mL
Toxic fingerprint: MTC value for microorganism no. 5 [1]: 9.500 and 15.000
Inhibitory concentrations by method: Microtox [3]: 9.843 mg/mL
Toxic fingerprint: MTC value for microorganism no. 2 [4]: 2.660 and 2.930
Toxic fingerprint: MTC value for microorganism no. 9 (ObanF): 22.700 and 20.100
Toxic fingerprint: MTC value for microorganism no. 4 [6]: 6.040 and 6.560
Toxic fingerprint: MTC value for microorganism no. 1 [7]: 3.290 and 2.220
Toxic fingerprint: MTC value for microorganism no. 10 [8]: 5.650 and 4.130
Inhibitory concentrations by method: MARA MTCmin [10]: 4.890 mg/mL
Inhibitory concentrations by method: MARA MTCmean [10]: 8.050 mg/mL
Toxic fingerprint: MTC value, Mean [10]: 6.930 and 9.170
Toxic fingerprint: MTC value for microorganism no. 7 (microorganism no. 7): 6.450 and 7.890
Inhibitory concentrations by method: E. coli (E. coli): 10.547 mg/mL
Toxic fingerprint: MTC value for microorganism no. 8 (E. coli MZ 480): 11.400 and 14.600

[Cl-].[K+] [Potassium Chloride]
Toxic fingerprint: MTC value for microorganism no. 5 [1]: 20.100
Toxic fingerprint: MTC value for microorganism no. 11 [2]: 31.300
Toxic fingerprint: MTC value for microorganism no. 2 [4]: 29.400
Toxic fingerprint: MTC value for microorganism no. 9 (ObanF): 65.400
Toxic fingerprint: MTC value for microorganism no. 6 [5]: 27.100
Toxic fingerprint: MTC value for microorganism no. 4 [6]: 17.000
Toxic fingerprint: MTC value for microorganism no. 1 [7]: 28.200
Toxic fingerprint: MTC value for microorganism no. 10 [8]: 16.000
Toxic fingerprint: MTC value for microorganism no. 3 [9]: 10.600
Toxic fingerprint: MTC value, Mean [10]: 29.800
Toxic fingerprint: MTC value for microorganism no. 7 (microorganism no. 7): 67.300
Toxic fingerprint: MTC value for microorganism no. 8 (E. coli MZ 480): 62.300

Cn1c(=O)c2c(ncn2C)n(C)c1=O [Caffeine]
Inhibitory concentrations by method: Daphnia (Daphnia): 0.158 mg/mL
Toxic fingerprint: MTC value for microorganism no. 5 [1]: 0.973
Toxic fingerprint: MTC value for microorganism no. 5 ([1]; listed as Coffein): 3.550
Toxic fingerprint: MTC value for microorganism no. 11 [2]: 6.060
Toxic fingerprint: MTC value for microorganism no. 11 ([2]; listed as Coffein): 2.310
Inhibitory concentrations by method: Microtox [3]: 2.129 mg/mL
Toxic fingerprint: MTC value for microorganism no. 2 [4]: 1.010
Toxic fingerprint: MTC value for microorganism no. 2 ([4]; listed as Coffein): 1.080
Toxic fingerprint: MTC value for microorganism no. 6 [5]: 2.190
Toxic fingerprint: MTC value for microorganism no. 6 ([5]; listed as Coffein): 1.300
Toxic fingerprint: MTC value for microorganism no. 10 [8]: 0.790
Toxic fingerprint: MTC value for microorganism no. 10 ([8]; listed as Coffein): 0.785
Inhibitory concentrations by method: MARA MTCmin [10]: 0.788 mg/mL
Inhibitory concentrations by method: MARA MTCmean [10]: 2.085 mg/mL
Toxic fingerprint: MTC value, Mean [10]: 2.250
Toxic fingerprint: MTC value, Mean ([10]; listed as Coffein): 1.920
Toxic fingerprint: MTC value for microorganism no. 7 (microorganism no. 7): 2.930
Toxic fingerprint: MTC value for microorganism no. 7 (microorganism no. 7; listed as Coffein): 1.510
Inhibitory concentrations by method: E. coli (E. coli): 15.426 mg/mL
Toxic fingerprint: MTC value for microorganism no. 8 (E. coli MZ 480): 3.430
Toxic fingerprint: MTC value for microorganism no. 8 (E. coli MZ 480; listed as Coffein): 3.500
